According to patent publication US20080287445A1, “Prokineticin 2 receptor antagonists” (priority 2005, published 2008):
Several values for one entry are separate records, joined by “and”; a condition that tells them apart may be missing. Equal entries are not always repeated.

B1: PK1: Recombinant human prokineticin-1 expressed in HEK 293 cells, FLAG epitope cleaved; preparation holds full-length and a four C-terminal residue truncated product (protein, UniProt P58294 20-105, looked up)
Prokineticin-1: AVITGACERDVQCGAGTCCAISLWLRGLRMCTPLGREGEECHPGSHKVPFFRKRKHHTCPCLPNLLCSRFPDGRYRCSMDLKNINF
modifications: mixture with C-terminally truncated product

Columns and labels:
[1] = tested on: Cholera toxin evoked increase in baseline Isc; parameters: species or system rat
[2] = target: T1, GPR73 (prokineticin 1 receptor) (Homo sapiens, UniProt Q8TCW9); experiment: PK1 functional assay: Ca2+ mobilization screening for PK1 antagonists on the FLIPR; format: cell-based; details: HEK 293 GPR73 cells, multiple values = multiple testing; for inhibition at 10 µM: HEK293, 10 μM compound, read-out: Ca^2+ Mobilization % Inh @ 10 μM; for IC50: PK1 ligand preparation at its EC50, read-out: Ca^2+ Mobilization IC50
T1 construct: expressed in transfected cells; host or cells: HEK 293
T1 sequence (Q8TCW9 whole entry, species assumed): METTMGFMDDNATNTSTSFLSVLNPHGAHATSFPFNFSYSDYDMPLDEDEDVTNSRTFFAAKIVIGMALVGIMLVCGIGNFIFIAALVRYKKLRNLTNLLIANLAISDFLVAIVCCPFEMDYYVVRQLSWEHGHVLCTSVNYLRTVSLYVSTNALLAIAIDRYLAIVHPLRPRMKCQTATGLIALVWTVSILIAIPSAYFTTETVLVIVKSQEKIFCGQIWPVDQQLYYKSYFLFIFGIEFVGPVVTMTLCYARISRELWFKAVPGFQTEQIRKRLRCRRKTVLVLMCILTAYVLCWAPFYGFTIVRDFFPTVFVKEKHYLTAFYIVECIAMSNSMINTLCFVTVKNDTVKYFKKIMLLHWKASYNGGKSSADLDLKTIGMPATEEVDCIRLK
How it was run: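 HEK293 cells expressing human GPR73 were loaded with Calcium Plus dye, then on FLIPR given compound for 4 min 15 s before PK1 ligand at its predetermined EC50. Baseline-subtracted fluorescence over 1 min 45 s gave percent inhibition versus maximal signal; IC50 fitted.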

[3] = tested on: ileum mucosal tissues from PK1 receptor knock-out mice; experiment: PK1-evoked Isc in ileum mucosal tissues from PK1 receptor knock-out mice; details: exogenous PK1 peptide

Molecule	suppression of Cholera toxin-evoked increase in Isc (in words) [1]	suppression of sustained increase in baseline Isc evoked by Cholera toxin [1]	Ca^2+ Mobilization % Inh @ 10 μM ([2]; 10 μM compound, 10 µM)	inhibition at 10 µM [2]	IC50 [2]	change in Isc compared to wild-type littermates [3]
COc1ccc(Cn2c(NCc3cccnc3N)nc(=O)n(Cc3ccc(OC)cc3)c2=O)cc1 [Cpd 3, 6-[(2-Amino-pyridin-3-ylmethyl)-amino]-1,3-bis-(4-methoxy-benzyl)-1H-[1,3,5]triazine-2,4-dione]	suppresses	50-60%	94% and 100%	83%	34 nM and 61 nM and 82 nM	
Nc1cc(Cn2c(=O)nc(NCc3cccnc3N)n(Cc3ccc4c(c3)CCO4)c2=O)ccc1O [Cpd 269]				22%	> 10000 nM	
Cc1cc(COCc2ccccc2)c(CNc2nc(=O)n(Cc3ccc4c(c3)CCO4)c(=O)n2Cc2ccc(OC(F)F)cc2)c(N)n1 [Cpd 270, 6-[(2-Amino-4-benzyloxymethyl-6-methyl-pyridin-3-ylmethyl)-amino]-1-(4-difluoromethoxy-benzyl)-3-(2,3-dihydro-benzofuran-5-ylmethyl)-1H-[1,3,5]triazine-2,4-dione]				12%	> 10000 nM	
B1						failed to elicit a significant change in Isc
